In paper PMC5078989, “Targeted inhibition of the COP9 signalosome for treatment of cancer” (Nature Communications, 2016):
pEC50: −log10 of the molar value.

System: panel of cancer cell lines
Experiment: Cell viability (CellTiter-Glo) dose-response across cancer cell line panel;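 further: after 72 h compound incubation with CellTiter-Glo ATP readout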
Format: cell-based, human
Details: Homo sapiens
Excerpt: Next, we explored the effect of CSN5 inhibition on the viability of cancer cells. To obtain a comprehensive picture, we generated dose–response curves with a CSN5 inhibitor across more than 500 cancer cell lines in a previously described standardized setting[47] (Supplementary Data 1).
A standardized CellTiter-Glo Assay (Promega #G7570) based on the quantification of ATP was applied according to the manufacturer's protocol to measure the amount of viable cells in culture. In brief, cells were seeded into 384-well plates at optimal density for each cell line. After 4 h, compounds were added at different concentrations in growth medium and incubated for another 72 h in a humidifying chamber at 37 °C and 5% CO2. […] EC50 values were calculated from the plot of percentage of inhibition versus inhibitor concentration using the nonlinear regression analysis software Origin 7.5SR6 (OriginLab Corp.).

Work on COCc1ccccc1NCc1ccc([C@H]2[C@@H](O)CCCc3cncn32)c(-c2ccccc2Cl)c1 [CSN5i-2, (5S,6S)-5-(2′-chloro-5-(((2-(methoxymethyl)phenyl)amino)methyl)-[1,1′-biphenyl]-2-yl)-6,7,8,9-tetrahydro-5H-imidazo[1,5-a]azepin-6-ol] yielded a pEC50 (MOG-G-CCM) of 5.46, a pEC50 (MOLM16, MOLM-16) of 6.88 and a pEC50 (MOLM-13, MOLM-13) of 6.58. For the same compound, the pEC50 (MOLT-13, MOLT-13) was 6.66, the pEC50 (MOLT-16, MOLT-16) was 6.47 and the pEC50 (MSTO-211H) was 5.87. The pEC50 (MV4-11, MV-4-11) was 6.34, the pEC50 (Malme-3M) was 5.69 and the pEC50 (MeWo) was 6.33. The pEC50 (Mono-Mac-1, MONO-MAC-1) was 6.13, the pEC50 (NALM-6, NALM-6) was 6.68 and the pEC50 (NB1, NB-1) was 6.27. It also gave a pEC50 (NB-4, NB-4) of 6.67, a pEC50 (NCI-H23, NCI-H23) of 6.46 and a pEC50 (NCI-H28, NCI-H28) of 5.33. The pEC50 (NCI-H82, NCI-H82) was 5.28, the pEC50 (NCI-H146, NCI-H146) was 5.28 and the pEC50 (NCI-H211, NCI-H211) was 5.76. For the same compound, the pEC50 (NCI-H322, NCI-H322) was 5.60, the pEC50 (NCI-H441, NCI-H441) was 5.47 and the pEC50 (NCI-H460, NCI-H460) was 5.07. For the same compound, the pEC50 (NCI-H520, NCI-H520) was 4.97, the pEC50 (NCI-H647, NCI-H647) was < 4.52 and the pEC50 (NCI-H650, NCI-H650) was < 4.52. For the same compound, the pEC50 (NCI-H661, NCI-H661) was 6.34, the pEC50 (NCI-H747, NCI-H747) was 6.14 and the pEC50 (NCI-H810, NCI-H810) was 6.12. For the same compound, the pEC50 (NCI-H838, NCI-H838) was 6.00, the pEC50 (NCI-H841, NCI-H841) was 5.98 and the pEC50 (NCI-H1048, NCI-H1048) was 5.72. It also gave a pEC50 (NCI-H1155, NCI-H1155) of 6.18, a pEC50 (NCI-H1299, NCI-H1299) of 5.82 and a pEC50 (NCI-H1339, NCI-H1339) of 5.95. The pEC50 (NCI-H1341) was 5.70, the pEC50 (NCI-H1355, NCI-H1355) was 5.89 and the pEC50 (NCI-H1373, NCI-H1373) was 5.03. For the same compound, the pEC50 (NCI-H1437, NCI-H1437) was 4.75, the pEC50 (NCI-H1568, NCI-H1568) was 6.36 and the pEC50 (NCI-H1650, NCI-H1650) was 5.74. For the same compound, the pEC50 (NCI-H1666, NCI-H1666) was 4.92, the pEC50 (NCI-H1703, NCI-H1703) was 5.79 and the pEC50 (NCI-H1755, NCI-H1755) was 6.01. For the same compound, the pEC50 (NCI-H1792, NCI-H1792) was 5.64, the pEC50 (NCI-H1915, NCI-H1915) was 5.90 and the pEC50 (NCI-H1975, NCI-H1975) was 5.55. It also gave a pEC50 (NCI-H2023, NCI-H2023) of 6.29, a pEC50 (NCI-H2030, NCI-H2030) of 6.25 and a pEC50 (NCI-H2073, NCI-H2073) of 5.35. It also gave a pEC50 (NCI-H2087, NCI-H2087) of 5.95, a pEC50 (NCI-H2110, NCI-H2110) of 5.75 and a pEC50 (NCI-H2122, NCI-H2122) of 6.05. For the same compound, the pEC50 (NCI-H2126, NCI-H2126) was < 4.52, the pEC50 (NCI-H2170, NCI-H2170) was 4.76 and the pEC50 (NCI-H2171, NCI-H2171) was 5.87. The pEC50 (NCI-H2172, NCI-H2172) was 5.31, the pEC50 (NCI-H2228, NCI-H2228) was 5.31 and the pEC50 (NCI-H2286, NCI-H2286) was 6.44. For the same compound, the pEC50 (NCI-H2444, NCI-H2444) was 6.49, the pEC50 (NCI-H2452, NCI-H2452) was 5.71 and the pEC50 (NCI-H3255, NCI-H3255) was < 4.52. The pEC50 (NCI-N87, NCI-N87) was 6.98, the pEC50 (NO36) was 5.70 and the pEC50 (NOMO-1, NOMO-1) was 5.78. The pEC50 (NUGC-3, NUGC-3) was 5.19, the pEC50 (OCI-AML-3, OCI-AML3) was 5.93 and the pEC50 (OCI-AML-5, OCI-AML5) was 6.17. The pEC50 (OCI-Ly3, OCI-LY3) was 6.39, the pEC50 (ONCO-DG-1, ONCO-DG-1) was 5.95 and the pEC50 (OUMS-23, OUMS-23) was 6.13. The pEC50 (OV56, OV56) was 6.40, the pEC50 (OVCAR-3, NIH:OVCAR-3) was 6.28 and the pEC50 (OVCAR-4, OVCAR-4) was 5.81. For the same compound, the pEC50 (OVISE) was 4.54, the pEC50 (P3HR-1, P3HR-1) was 6.25 and the pEC50 (P12-Ichikawa) was 6.55. For the same compound, the pEC50 (P31-FUJ, P31/FUJ) was 6.16, the pEC50 (PANC-1, PANC-1) was 6.32 and the pEC50 (PANC-03-27, Panc 03.27) was 6.17. The pEC50 (PC-3, PC-3) was 5.23, the pEC50 (PC-14, PC-14) was 5.05 and the pEC50 (PE/CA-PJ49) was 6.01. It also gave a pEC50 (PF-382, PF-382) of 6.58, a pEC50 (PK-1, PK-1) of 5.57 and a pEC50 (PK-45H) of 5.73. For the same compound, the pEC50 (PK-59, PK-59) was 5.75, the pEC50 (PL45, PL45) was 6.14 and the pEC50 (PL-21, PL-21) was 6.17. It also gave a pEC50 (PLC-PRF-5, PLC/PRF/5) of 5.16, a pEC50 (PSN1, PSN1) of 5.77 and a pEC50 (PaTu 8902, PA-TU-8902) of 5.63. The pEC50 (PaTu 8988t, PA-TU-8988T) was 5.23, the pEC50 (Panc 04.03, Panc 04.03) was 5.17 and the pEC50 (Panc1005, Panc 10.05) was 6.51. For the same compound, the pEC50 (QGP-1, QGP-1) was < 4.52, the pEC50 (RCM-1, RCM-1) was 5.57 and the pEC50 (RD) was 5.74. For the same compound, the pEC50 (RD-ES) was 6.08, the pEC50 (RERF-LC-AI) was 6.24 and the pEC50 (RERF-LC-MS) was 5.81. The pEC50 (RKN) was 5.95, the pEC50 (RKO) was 5.57 and the pEC50 (RMUG-S) was < 4.52. For the same compound, the pEC50 (RPMI 8402, RPMI-8402) was 6.20, the pEC50 (RPMI-7951, RPMI-7951) was 4.80 and the pEC50 (RT-112, RT-112) was 5.24. For the same compound, the pEC50 (RVH-421, RVH-421) was 5.61, the pEC50 (Rh41, RH-41) was 6.02 and the pEC50 (SCC-25, SCC-25) was 5.00. For the same compound, the pEC50 (SCaBER) was 5.45, the pEC50 (SEM) was 6.14 and the pEC50 (SF8657) was < 4.52. For the same compound, the pEC50 (SF-268, SF-268) was 5.72, the pEC50 (SH-4, SH-4) was 6.37 and the pEC50 (SH-10-TC) was 5.86. It also gave a pEC50 (SH-SY5Y) of 5.46, a pEC50 (SJRH30, SJRH30) of 5.72 and a pEC50 (SK-CO-1, SK-CO-1) of 5.91. For the same compound, the pEC50 (SK-ES1, SK-ES-1) was 6.27, the pEC50 (SK-HEP1, SK-HEP-1) was 6.01 and the pEC50 (SK-LU-1, SK-LU-1) was 5.47. It also gave a pEC50 (SK-MEL3, SK-MEL-3) of 4.70, a pEC50 (SK-MEL-2, SK-MEL-2) of 5.71 and a pEC50 (SK-MEL-5, SK-MEL-5) of 5.80. The pEC50 (SK-MEL-28, SK-MEL-28) was 6.38, the pEC50 (SK-MEL-30, SK-MEL-30) was 5.64 and the pEC50 (SK-MEL-31) was 5.27. The pEC50 (SK-N-SH) was 5.58, the pEC50 (SK-OV-3, SK-OV-3) was < 4.52 and the pEC50 (SKM-1, SKM-1) was 6.31. It also gave a pEC50 (SKNBE2, SK-N-BE(2)) of 6.34, a pEC50 (SNB-19, SNB-19) of 5.66 and a pEC50 (SNG-M) of 6.43. For the same compound, the pEC50 (SNU878, SNU-878) was 5.17, the pEC50 (SNU-8) was 6.22 and the pEC50 (SNU-16, SNU-16) was 5.68. It also gave a pEC50 (SNU-61) of 5.70, a pEC50 (SNU-81) of 6.13 and a pEC50 (SNU-175) of 6.09. For the same compound, the pEC50 (SNU-213) was 5.40, the pEC50 (SNU-349) was 5.45 and the pEC50 (SNU-387, SNU-387) was 6.18. It also gave a pEC50 (SNU-398, SNU-398) of 6.56, a pEC50 (SNU-410) of 4.68 and a pEC50 (SNU-423, SNU-423) of 5.88.
